Among the data in patent publication US10596172B2 (Celgene CAR LLC, priority 2008, dated 2020) are IC50 and EC50 values, retold here.

Where two headings read alike, the source gives them in different places. Some results are limits rather than exact numbers.

Experiment [1] concerns the target BTK (Homo sapiens (Human), UniProt Q06187). Briefly: Omnia assay for potency assessment against BTK. The class given is biochemical. The conditions noted are these: [BTK]=5 nm; read-out: BTK Inhibition. Here is the method:
Omnia Assay Protocol for Potency Assessment Against BTK
The modified BTK-optimized reagent conditions for the above protocol are:
[BTK]=5 nm, [ATP]=40 mM, [Y5-Sox]=10 mM (ATP KMapp˜36 mM).

Experiment [2] addresses EGFR-WT (Homo sapiens (Human), UniProt P00533). Description: Omnia assay for potency assessment against EGFR (WT). The conditions noted are these: wild-type EGFR; read-out: EGFR Wild Type Inhibition. The class given is biochemical.
For experiment [3], the system named is B cell lymphoma cell lines. Briefly: B cell lymphoma proliferation assay. The class given is cell-based. The settings on record: Homo sapiens.
The target of experiment [4] is JAK3 (Homo sapiens (Human), UniProt P52333). Description: Omnia assay for potency assessment against the active form of JAK3. The settings on record: read-out: JAK3 Inhibition. In kind it is biochemical. The method, then:
Briefly, 10× stocks of EGFR-WT (PV3872) from Invitrogen and EGFR-T790M/L858R (40350) from BPS Bioscience, San Diego, Calif., 1.13×ATP (AS001A) and appropriate Tyr-Sox conjugated peptide substrates (KCZ1001) were prepared in 1× kinase reaction buffer consisting of 20 mM Tris, pH 7.5, 5 mM MgCl2, 1 mM EGTA, 5 mM β-glycerophosphate, 5% glycerol (10× stock, KB002A) and 0.2 mM DTT (DS001A).
The Omnia Assay Protocol for potency assessment against JAK3 was performed in a substantially similar manner as that described in Example 251 above except that the modified JAK3-optimized reagent conditions were:
[JAK3]=5 nM, [ATP]=5 μM, [Y12-Sox]=5 μM (ATP KMapp˜5 μM).

Where [5] appears, read: DOHH-2, DOHH2 B cell lymphoma cell line, read-out: EC50 (μM) DOHH2.
Where [6] appears, read: WSUDLCL2, WSU-DLCL2 B cell lymphoma cell line, read-out: EC50 (μM) WSU-DLCL2.

JAK3, sequence (P52333 whole entry): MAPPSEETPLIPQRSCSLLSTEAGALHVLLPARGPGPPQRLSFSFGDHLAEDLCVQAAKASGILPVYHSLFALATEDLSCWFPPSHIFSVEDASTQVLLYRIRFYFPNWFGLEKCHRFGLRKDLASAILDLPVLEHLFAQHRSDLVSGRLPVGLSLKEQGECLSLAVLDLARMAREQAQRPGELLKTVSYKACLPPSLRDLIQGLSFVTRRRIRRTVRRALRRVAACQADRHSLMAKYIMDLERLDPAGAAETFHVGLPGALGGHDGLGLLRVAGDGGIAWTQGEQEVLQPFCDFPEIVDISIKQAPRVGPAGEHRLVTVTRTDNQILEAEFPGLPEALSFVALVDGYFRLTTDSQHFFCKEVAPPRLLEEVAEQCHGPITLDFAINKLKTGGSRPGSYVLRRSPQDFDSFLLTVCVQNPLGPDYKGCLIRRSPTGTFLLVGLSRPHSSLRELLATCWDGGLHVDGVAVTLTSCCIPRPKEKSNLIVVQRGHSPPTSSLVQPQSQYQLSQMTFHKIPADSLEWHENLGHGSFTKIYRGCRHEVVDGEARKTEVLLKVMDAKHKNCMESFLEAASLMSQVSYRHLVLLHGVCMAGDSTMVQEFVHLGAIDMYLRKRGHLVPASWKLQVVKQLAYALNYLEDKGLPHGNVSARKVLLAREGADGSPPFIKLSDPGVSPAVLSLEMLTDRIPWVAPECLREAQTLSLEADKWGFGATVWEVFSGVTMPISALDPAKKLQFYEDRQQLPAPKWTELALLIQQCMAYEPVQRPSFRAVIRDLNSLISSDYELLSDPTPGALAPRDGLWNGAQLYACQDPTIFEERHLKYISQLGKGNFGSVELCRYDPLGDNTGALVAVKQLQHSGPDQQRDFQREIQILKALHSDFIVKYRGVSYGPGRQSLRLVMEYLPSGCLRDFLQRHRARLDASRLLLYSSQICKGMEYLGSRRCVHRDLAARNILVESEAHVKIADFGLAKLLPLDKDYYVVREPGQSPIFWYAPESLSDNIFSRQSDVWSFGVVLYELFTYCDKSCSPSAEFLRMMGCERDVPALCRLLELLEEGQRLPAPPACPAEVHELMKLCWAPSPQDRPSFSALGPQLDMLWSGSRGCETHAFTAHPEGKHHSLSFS
BTK, sequence (Q06187 whole entry): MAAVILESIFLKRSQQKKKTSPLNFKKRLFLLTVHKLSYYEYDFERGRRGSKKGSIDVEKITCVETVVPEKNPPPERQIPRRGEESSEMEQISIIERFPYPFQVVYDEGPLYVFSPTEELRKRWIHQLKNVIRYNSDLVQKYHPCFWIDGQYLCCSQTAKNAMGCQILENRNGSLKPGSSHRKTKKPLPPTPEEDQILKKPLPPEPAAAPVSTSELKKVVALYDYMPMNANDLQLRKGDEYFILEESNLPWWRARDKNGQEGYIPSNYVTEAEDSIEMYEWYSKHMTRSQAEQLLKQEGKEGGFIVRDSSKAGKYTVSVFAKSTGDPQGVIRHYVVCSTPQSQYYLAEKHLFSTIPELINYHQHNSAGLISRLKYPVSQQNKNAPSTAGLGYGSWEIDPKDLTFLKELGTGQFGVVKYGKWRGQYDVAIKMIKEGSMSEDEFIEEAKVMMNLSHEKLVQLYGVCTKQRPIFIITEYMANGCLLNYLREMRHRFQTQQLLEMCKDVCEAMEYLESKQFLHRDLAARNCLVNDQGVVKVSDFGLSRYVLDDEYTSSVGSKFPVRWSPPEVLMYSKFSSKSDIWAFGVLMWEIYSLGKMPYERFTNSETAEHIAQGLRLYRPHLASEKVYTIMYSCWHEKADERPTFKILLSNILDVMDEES

Turning to “4-(4-(4-(3-acrylamidophenylamino)-5-fluoropyrimidin-2-ylamino)phenoxy)pyridine [Compound I-346]”, the IC50 was less than 10 nM in experiment [1] and 100 to 1000 nM in experiment [2].

As to `C=CC(=O)Nc1cccc(Nc2ncc(F)c(Nc3cccc(C)c3)n2)c1` [Compound I-3, N-(3-(5-fluoro-4-(m-tolylamino)pyrimidin-2-ylamino)phenyl)acrylamide], the half-maximal effective concentration (EC50) in experiment [3] (setting [5]) is 0.1 to 1 µM. The IC50 in experiment [4] was less than 10 nM.

In the case of `C=CC(=O)N1CCCC(Nc2nc(Nc3ccccc3)ncc2C)C1` (stereo not drawn) [Compound I-27], the 50% effective concentration (EC50) is 1 to 10 µM in experiment [3] (setting [5]) and more than 10 µM in experiment [3] (setting [6]). Further, in experiment [4], the IC50 lay in the range of 10 to 100 nM.

`C=CC(=O)Nc1ccc(Nc2nc(Nc3ccccc3)ncc2C)cc1` [Compound I-39, N-(4-(5-methyl-2-(phenylamino)pyrimidin-4-ylamino)phenyl) acrylamide]: the EC50 in experiment [3] (setting [5]) and in experiment [3] (setting [6]) was 1 to 10 µM throughout. In experiment [4], the IC50 was less than 10 nM.

In the case of `C=CC(=O)N1CCc2cc(Nc3nc(Nc4cccc(S(N)(=O)=O)c4)ncc3C)ccc2C1` [Compound I-40, 3-(4-(2-acryloyl-1,2,3,4-tetrahydroisoquinolin-6-ylamino)-5-methylpyrimidin-2-ylamino)benzenesulfonamide], the figures for the EC50 in experiment [3] (setting [5]) and in experiment [3] (setting [6]) were 0.1 to 1 µM and 1 to 10 µM, respectively. Besides, the IC50 in experiment [4] is less than 10 nM.

Regarding `C=CC(=O)Nc1ccc(C)c(Nc2nccc(-c3cccnc3)n2)c1` [Compound I-56, N-(4-methyl-3-(4-(pyridin-3-yl)pyrimidin-2-ylamino)phenyl)acrylamide], in experiment [4], the IC50 lay in the range of 10 to 100 nM.

For the molecule `C=CC(=O)Nc1cccc(Oc2nc(Nc3cc(OC)c(OC)c(OC)c3)ncc2F)c1` [Compound I-148, N-(3-(5-fluoro-2(3,4,5-trimethoxyphenylamino)pyrimidin-4-yloxy)phenyl)acrylamide], the IC50 in experiment [1] and in experiment [2] was 1000 to 10000 nM throughout.

With `C=CC(=O)N1CCOc2ccc(Nc3nc(Nc4ccc(OC)nc4)ncc3C(C)=O)cc21` [Compound I-170, 1-{6-[5-Acetyl-2-(6-methoxy-pyridin-3-ylamino)-pyrimidin-4-ylamino]-2,3-dihydro-benzo[1,4]oxazin-4-yl}-propenone], in experiment [2], the IC50 lay in the range of 10 to 100 nM.

On to `C=CC(=O)N1CCC[C@H](Nc2nc(Nc3ccc(OC)nc3)ncc2F)C1` [Compound I-197, (S)-1-(3-(5-fluoro-2-(6-methoxypyridin-3-ylamino)pyrimidin-4-ylamino)piperidin-1-yl)prop-2-en-1-one], for which the IC50 in experiment [1] and in experiment [2] was 100 to 1000 nM each time.

On to `C=CC(=O)Nc1cccc(Nc2nc(NC3CCCN(C(C)=O)C3)ncc2F)c1` (stereo not drawn) [Compound I-238, N-(3-(2-(1-acetylpiperidin-3-ylamino)-5-fluoropyrimidin-4-ylamino)phenyl)acrylamide], for which the IC50 in experiment [4] was in the range of 1000 to 10000 nM.

For `C=CC(=O)Nc1cccc(Nc2nc(NCc3ccc(OC)cc3)ncc2F)c1` [Compound I-241, N-(3-(5-fluoro-2-(4-methoxybenzylamino)pyrimidin-4-ylamino)phenyl)acrylamide], in experiment [4], the IC50 was 100 to 1000 nM.

Regarding `C=CC(=O)Nc1cccc(Nc2nc(Nc3ccccc3)ncc2C(F)(F)F)c1` [Compound I-245, N-(3-(5-trifluoromethyl-2-(phenylamino)pyrimidin-4-ylamino)phenyl)acrylamide], the concentration for a half-maximal effect (EC50) in experiment [3] (setting [5]) was 1 to 10 µM; in experiment [3] (setting [6]), more than 10 µM. For the same molecule, in experiment [4], the IC50 is less than 10 nM.

Turning to `C/C=C/C(=O)OCc1cccc(Nc2nc(Nc3ccccc3)ncc2C)c1` [Compound I-246, (E)-3-(5-methyl-2-(phenylamino)pyrimidin-4-ylamino)benzyl but-2-enoate], the IC50 in experiment [4] was in the range of 100 to 1000 nM.

For the molecule `C=CC(=O)Nc1cccc(Nc2nc(Nc3ccc(OCCOC)c(OCCOC)c3)ncc2F)c1` [Compound I-277, N-(3-(2-(3,4-bis(2-methoxyethoxy)phenylamino)-5-fluoropyrimidin-4-ylamino)phenyl)acrylamide], the IC50 is less than 10 nM in experiment [1] and 10 to 100 nM in experiment [2].

As for `COCCOc1ccc(Nc2ncc(F)c(Nc3cccc(C(=O)C=C(C)C)c3)n2)cc1F` [Compound I-323, 1-(3-(5-fluoro-2-(3-fluoro-4-(2-methoxyethoxy)phenylamino)pyrimidin-4-ylamino)phenyl)-3-methylbut-2-en-1-one], in experiment [4], the IC50 is more than 10000 nM.

Turning to `C=CC(=O)Nc1cccc(Nc2ncc(F)c(Nc3ccc(O[C@H]4CCOC4)cc3)n2)c1` [Compound I-338, (S)—N-(3-(5-fluoro-4-(4-(tetrahydrofuran-3-yloxy)phenylamino)pyrimidin-2-ylamino)phenyl)acrylamide], the IC50 in experiment [2] was 10 to 100 nM.

In the case of `C=CC(=O)Nc1cccc(Nc2nc(Nc3ccc(OCCOCCNC(=O)CCCC(=O)NCCCOCCOCCOCCCNC(=O)CCCC[C@@H]4SC[C@@H]5NC(=O)N[C@@H]54)cc3)ncc2F)c1` [Compound I-363, N1-(2-(2-(4-(4-(3-acrylamidophenylamino)-5-fluoropyrimidin-2-ylamino)phenoxy)ethoxy)ethyl)-N5-(15-oxo-19-((3aS,4S,6aR)-2-oxohexahydro-1H-thieno[3,4-d]imidazol-4-yl)-4,7,10-trioxa-14-azanonadecyl)glutaramide], the IC50 in experiment [1] and in experiment [2] was less than 10 nM each time.

`C=CC(=O)Nc1cccc(Nc2nc(Nc3ccc(Cl)c(O[C@@H](C)COC(=O)[C@@H](N)C(C)C)c3)ncc2F)c1` [Compound I-369, (S)-((S)-2-(5-(4-(3-acrylamidophenylamino)-5-fluoropyrimidin-2-ylamino)-2-chlorophenoxy)propyl)-2-amino-3-methylbutanoate]: the figures for the IC50 in experiment [1] and in experiment [2] were less than 10 nM and 100 to 1000 nM, respectively.

Turning to `C=CC(=O)Nc1cccc(Nc2nc(Nc3ccc(OCCOCCNC(=O)OC(C)(C)C)cc3)ncc2F)c1` [Compound I-370, tert-butyl 2-(2-(4-(4-(3-acrylamidophenylamino)-5-fluoropyrimidin-2-ylamino)phenoxy)ethoxy)ethylcarbamate], the IC50 in experiment [1] and in experiment [2] was less than 10 nM throughout.

Take `C=CC(=O)Nc1cccc(Nc2nc(Nc3ccc(OCCOCCN=[N+]=[N-])cc3)ncc2F)c1` [Compound I-371, N-(3-(2-(4-(2-(2-azidoethoxy)ethoxy)phenylamino)-5-fluoropyrimidin-4-ylamino)phenyl)acrylamide]: the IC50 in experiment [1] was less than 10 nM; in experiment [2], 10 to 100 nM.

For `C=CC(=O)Nc1cccc(Nc2nc(Nc3ccc(O[C@H](C)CO)c(F)c3)ncc2F)c1` [Compound I-372, (R)—N-(3-(5-fluoro-2-(3-fluoro-4-(1-hydroxypropan-2-yloxy)phenylamino)pyrimidin-4-ylamino)phenyl)acrylamide], the IC50 in experiment [1] was less than 10 nM; in experiment [2] it was 10 to 100 nM.

With `C=CC(=O)Nc1cccc(Nc2nc(Nc3ccc(O[C@@H](C)CO)c(F)c3)ncc2F)c1` [Compound I-373, (S)—N-(3-(5-fluoro-2-(3-fluoro-4-(1-hydroxypropan-2-yloxy)phenylamino)pyrimidin-4-ylamino)phenyl)acrylamide], the values for the IC50 in experiment [1] and in experiment [2] were less than 10 nM and 10 to 100 nM, respectively.

Turning to `C=CC(=O)Nc1cccc(Nc2nc(Nc3ccc(O[C@H](C)COC(=O)[C@@H](N)C(C)C)c(F)c3)ncc2F)c1` [Compound I-374, (S)-((R)-2-(4-(4-(3-acrylamidophenylamino)-5-fluoropyrimidin-2-ylamino)-2-fluorophenoxy)propyl) 2-amino-3-methylbutanoate], the IC50 in experiment [1] and in experiment [2] was less than 10 nM in each case.

For `C=CC(=O)Nc1cccc(Nc2nc(Nc3ccc(OCCN=[N+]=[N-])cc3)ncc2F)c1` [Compound I-376, N-(3-(2-(4-(2-azidoethoxy)phenylamino)-5-fluoropyrimidin-4-ylamino)phenyl)acrylamide], the IC50 was less than 10 nM in experiment [1] and 10 to 100 nM in experiment [2].

On to `C=CC(=O)Nc1cccc(Nc2nc(Nc3ccc(O[C@@H](C)COC(=O)[C@@H](N)C(C)C)c(F)c3)ncc2F)c1` [Compound I-377, (S)-((S)-2-(4-(4-(3-acrylamidophenylamino)-5-fluoropyrimidin-2-ylamino)-2-fluorophenoxy)propyl) 2-amino-3-methylbutanoate], for which the IC50 in experiment [2] lay within 10 to 100 nM.

Take `COCCOc1ccc(Nc2ncc(F)c(Nc3ccc(CC(=O)C=C4CCC4)cc3)n2)cc1F` [Compound I-378]: the figures for the IC50 in experiment [1] and in experiment [2] were less than 10 nM and 10 to 100 nM, respectively.

For `C=CC(=O)Nc1cccc(Nc2nc(Nc3ccc(OCCOCCOCCN=[N+]=[N-])cc3)ncc2F)c1` [Compound I-379, N-(3-(2-(4-(2-(2-(2-azidoethoxy)ethoxy)ethoxy)phenylamino)-5-fluoropyrimidin-4-ylamino)phenyl)acrylamide], the IC50 in experiment [2] is 100 to 1000 nM.

Turning to `C=CC(=O)Nc1cccc(Nc2ncc(F)c(Nc3ccc(OCCOC)cc3)n2)c1` [Compound I-381, N-(3-(5-fluoro-4-(4-(2-methoxyethoxy)phenylamino)pyrimidin-2-ylamino)phenyl)acrylamide], the IC50 in experiment [1] and in experiment [2] was less than 10 nM in each case.

A word on the EC50: it is the concentration at which the effect is half-maximal.
